Earlier results in patent US20130191933A1, “METHODS OF TREATING PAIN AND MORPHINE TOLERANCE VIA MODULATION OF HEDGEHOG SIGNALLING PATHWAY” (BOARD OF REGENTS, THE UNIVERSITY OF TEXAS SYSTEM, priority 2010, published 2013).
Entries after “also recorded” stand apart in the source; their conditions may differ. Like-named read-outs stand apart in the source and are kept apart here.

Assays:
[1] = test system: Gli1, Gli2, PtchI and other Shh-target genes; conditions: in a variety of cell types; cited from earlier work
[2] = target: Smo (Homo sapiens, UniProt Q99835); conditions: cited from earlier work
[3] = target: Shh (Homo sapiens, UniProt Q15465); conditions: cited from earlier work
[4] = test system: Gli-mediated transcription; conditions: in a variety of cell types (Cur-61414: cell and tissues types; Robotnikinin: also synthetic human tissue); cited from earlier work

Chain of Smo (Q99835 28-787): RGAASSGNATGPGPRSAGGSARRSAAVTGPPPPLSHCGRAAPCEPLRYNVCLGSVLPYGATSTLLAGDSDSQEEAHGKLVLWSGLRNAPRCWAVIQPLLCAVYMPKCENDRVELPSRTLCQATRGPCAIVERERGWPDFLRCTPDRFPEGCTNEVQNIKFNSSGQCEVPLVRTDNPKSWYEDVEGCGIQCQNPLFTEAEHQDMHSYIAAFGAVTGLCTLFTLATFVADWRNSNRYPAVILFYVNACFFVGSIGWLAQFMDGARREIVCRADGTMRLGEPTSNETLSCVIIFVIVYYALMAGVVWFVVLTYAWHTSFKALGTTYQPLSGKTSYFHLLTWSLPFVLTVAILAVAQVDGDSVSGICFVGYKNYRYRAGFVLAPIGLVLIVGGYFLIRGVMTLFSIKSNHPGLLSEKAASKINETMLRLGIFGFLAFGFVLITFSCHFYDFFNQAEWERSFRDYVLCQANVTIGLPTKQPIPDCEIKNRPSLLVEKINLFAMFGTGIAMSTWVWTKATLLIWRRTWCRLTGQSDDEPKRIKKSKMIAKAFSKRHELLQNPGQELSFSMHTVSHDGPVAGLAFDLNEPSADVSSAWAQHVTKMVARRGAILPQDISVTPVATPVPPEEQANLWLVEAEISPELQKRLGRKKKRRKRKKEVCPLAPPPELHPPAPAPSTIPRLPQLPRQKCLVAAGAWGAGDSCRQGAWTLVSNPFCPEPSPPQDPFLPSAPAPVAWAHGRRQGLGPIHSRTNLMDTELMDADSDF
Chain of Shh (Q15465 24-462, species assumed): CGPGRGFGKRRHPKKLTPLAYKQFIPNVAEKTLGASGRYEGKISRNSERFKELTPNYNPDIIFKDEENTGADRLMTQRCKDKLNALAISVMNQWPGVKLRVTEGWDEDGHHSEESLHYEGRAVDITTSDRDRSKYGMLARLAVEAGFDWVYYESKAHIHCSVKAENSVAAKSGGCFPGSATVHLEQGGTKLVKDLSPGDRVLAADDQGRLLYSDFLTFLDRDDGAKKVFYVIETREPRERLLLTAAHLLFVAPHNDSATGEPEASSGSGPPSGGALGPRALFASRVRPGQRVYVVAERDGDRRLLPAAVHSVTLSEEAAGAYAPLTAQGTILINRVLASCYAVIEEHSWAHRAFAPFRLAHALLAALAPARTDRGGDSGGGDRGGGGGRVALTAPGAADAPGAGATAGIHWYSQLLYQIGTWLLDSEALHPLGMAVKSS

| SMILES | transcription of Gli1, Gli2, PtchI and other Shh-target genes [1] | targeting / binding of Smo [2] | targeting / binding of Smo ([2]; listed as jervine) | direct binding to Shh [3] | Gli-mediated transcription [4] |
| --- | --- | --- | --- | --- | --- |
| CC1=C2C(=O)[C@H]3[C@@H](CC=C4C[C@@H](O)CC[C@@]43C)[C@@H]2CC[C@]12O[C@@H]1C[C@H](C)CN[C@H]1[C@H]2C [Jervine] | Inhibits transcription of Gli1, Gli2, PtchI and other Shh-target | Targets Smo | target Smo |  |  |
| O=C(C[C@@H]1C/C=C/CCC(=O)O[C@H](c2ccccc2)CNC1=O)NCc1ccc(Cl)cc1 [Robotnikinin] |  |  |  | binds directly to Sonic Hedgehog; also recorded: Binds directly to Shh | Represses Gli-medicated transcription in a variety of cell types and |
